# T1: His6-Pd2,6ST(16–497) (Photobacterium damselae, UniProt O66375)
# T1 sequence (O66375 16-497): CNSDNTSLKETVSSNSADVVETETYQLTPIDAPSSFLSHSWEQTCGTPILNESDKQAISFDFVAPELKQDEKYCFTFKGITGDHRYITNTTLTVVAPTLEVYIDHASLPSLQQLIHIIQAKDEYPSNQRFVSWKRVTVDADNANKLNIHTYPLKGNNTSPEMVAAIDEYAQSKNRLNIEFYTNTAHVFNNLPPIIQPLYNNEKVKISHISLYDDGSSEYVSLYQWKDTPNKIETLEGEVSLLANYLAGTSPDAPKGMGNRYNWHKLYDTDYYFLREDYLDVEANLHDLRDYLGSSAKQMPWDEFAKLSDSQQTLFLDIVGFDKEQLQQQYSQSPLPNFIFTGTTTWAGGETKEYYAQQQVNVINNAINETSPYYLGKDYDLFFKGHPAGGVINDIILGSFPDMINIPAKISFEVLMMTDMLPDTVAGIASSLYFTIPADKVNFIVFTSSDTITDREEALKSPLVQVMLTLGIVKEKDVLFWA
# B1: Psp2,6ST(15–501)-His6 (Photobacterium sp. JT-ISH-224) (protein)
# chain: CNNSEENTQSIIKNDINKTIIDEEYVNLEPINQSNISFTKHSWVQTCGTQQLLTEQNKESISLSVVAPRLDDDEKYCFDFNGVSNKGEKYITKVTLNVVAPSLEVYVDHASLPTLQQLMDIIKSEEENPTAQRYIAWGRIVPTDEQMKELNITSFALINNHTPADLVQEIVKQAQTKHRLNVKLSSNTAHSFDNLVPILKELNSFNNVTVTNIDLYDDGSAEYVNLYNWRDTLNKTDNLKIGKDYLEDVINGINEDTSNTGTSSVYNWQKLYPANYHFLRKDYLTLEPSLHELRDYIGDSLKQMQWDGFKKFNSKQQELFLSIVNFDKQKLQNEYNSSNLPNFVFTGTTVWAGNHEREYYAKQQINVINNAINESSPHYLGNSYDLFFKGHPGGGIINTLIMQNYPSMVDIPSKISFEVLMMTDMLPDAVAGIASSLYFTIPAEKIKFIVFTSTETITDRETALRSPLVQVMIKLGIVKEENVLFWA
# Assays:
# Assay in all cases: apparent sialyltransferase kinetics
# Psp2,6ST(15–501)-His6 = Psp2,6ST(15–501)-His6 (Photobacterium sp. JT-ISH-224, UniProt A8QYL1); assay type: biochemical; conditions: read-out: Psp2,6ST(15-501)-His6; acceptor; donor CMP-Neu5Ac; apparent value
# His6-Pd2,6ST(16–497) = molecular target: T1, His6-Pd2,6ST(16–497); assay type: biochemical; conditions: read-out: His6-Pd2,6ST(16-497); acceptor; donor CMP-Neu5Ac; apparent value
# [1] = substrate: Cc1cc(=O)oc2cc(O[C@@H]3O[C@H](CO)[C@@H](O[C@@H]4O[C@H](CO)[C@H](O)[C@H](O)[C@H]4O)[C@H](O)[C@H]3O)ccc12; assay type: biochemical, Photobacterium sp. JT-ISH-224; conditions: acceptor; donor CMP-Neu5Ac; apparent value; pH 2.6
Molecule,"Km (Psp2,6ST(15–501)-His6)","Km (His6-Pd2,6ST(16–497))",Km [1],kcat [1],kcat/Km [1]
"CC(=O)N[C@H]1[C@@H](O[C@H](C)[C@H](N)C(=O)O)O[C@H](CO)[C@H](O)[C@@H]1O [compound 13, GalNAcαThr]",5.9 ± 1.6 mM,10 ± 1 mM,,,
"CC(=O)N[C@H]1[C@@H](OC[C@H](N)C(=O)O)O[C@H](CO)[C@H](O)[C@@H]1O [compound 12, GalNAcαSer]",1.4 ± 0.1 mM,1.6 ± 0.2 mM,,,
GalNAcα2AA [compound 11],9.5 ± 2.7 mM,51 ± 5 mM,,,
B1,,,0.36 ± 0.07 mM,1.67 ± 0.167 s⁻¹,4830 M⁻¹ s⁻¹
